Source: the NIST ThermoML archive (doi:10.1016/j.jct.2019.02.006)
± gives the expanded uncertainty stated by the source. One block for each molecule: values may come before it.

Conditions: Liquid, Ebulliometric method (Recirculating still)

vapor or sublimation pressure (353.94 K): 101.3 ± 5.1 kPa
SMILES: C1CCCCC1 [cyclohexane]

vapor or sublimation pressure (363.39 K): 2 ± 0.3 kPa
vapor or sublimation pressure (382.13 K): 5.2 ± 0.3 kPa
vapor or sublimation pressure (393.49 K): 8.3 ± 0.3 kPa
SMILES: COC(=O)CCC(=O)OC [dimethyl 1,4-butanedioate]

vapor or sublimation pressure (376.09 K): 2 ± 0.3 kPa
vapor or sublimation pressure (395.8 K): 5.2 ± 0.3 kPa
vapor or sublimation pressure (407.11 K): 8.3 ± 0.3 kPa
SMILES: COC(=O)CCCC(=O)OC [dimethyl pentanedioate]

vapor or sublimation pressure (371.53 K): 101.3 ± 5.1 kPa
SMILES: CCCCCCC [heptane]

vapor or sublimation pressure (390.98 K): 2 ± 0.3 kPa
vapor or sublimation pressure (410.82 K): 5.2 ± 0.3 kPa
vapor or sublimation pressure (422.47 K): 8.3 ± 0.3 kPa
SMILES: COC(=O)CCCCC(=O)OC [dimethyl 1,6-hexanedioate]
